Assay results from patent US5736557A, “N,N-bis (quinolin-4-yl)-diamine derivatives, their preparation and their use as antimalarials” (Hoffman-La Roche, Inc., priority 1994, dated 1998).
Values after ≈ are worked out from the molar mass of the structure shown. Read-outs that look alike come from different tables or passages of the source.

Experiments:
[1] = system: chloroquine-resistant strains of the human-pathogenic Plasmodium falciparum; assay: Growth inhibition of chloroquine-resistant Plasmodium falciparum strains in vitro; type: cell-based; conditions: for IC50: Plasmodium falciparum; for Resistance index: ratio of average IC50 values for resistant strains and average values for sensitive strains
Protocol: (§1) Test Method for the Determination of the Activity Against Plasmodium falciparum in vitro
(§2) The preparations are tested on intraerythrocytary stages of Plasmodium falciparum from asynchronous cultures according to the method of Desjardin et al. (Desjardins, R. E. et al: Quantitative assessment of antimalarial activity in vitro by a semiautomated microdilution technique. Antimicrob. Agents Chemother. 16, 710-718, (1979)).
(§3) The culture medium consists of RPMI 1640 with the addition of 25 mM HEPES, 25 mM NaHCO3, 100 μg/ml neomycin and […] (A^+). Human-A^+ erythrocytes are used as the Plasmodium falciparum host cells. The parasites are maintained at 37° C. in an atmosphere of 3% O2, 4% CO2, 9:3% N2 and 95% relative humidity.
(§4) In order to determine the activity, the preparations are dissolved in dimethyl sulphoxide, pre-diluted in the culture medium to a suitable starting concentration and subsequently titrated-out on to microtitre plates in the 2nd stage over 6-7 steps. After the addition of the parasite culture (0.7% parasitemia in 2.5% erythrocyte suspension) the test plates are incubated under the conditions given above for 48 h-72 h. The parasite growth in the different preparation concentrations is determined using [G--^3 H]-hypoxanthin incorporation compared to untreated control cultures on the same test plates. The 50% growth inhibition (IC50) is calculated according to logit regression analysis from the resulting dosage-activity curve.
(§5) The preparations are tested on at least one chloroquine-resistant and one chloroquine-sensitive Plasmodium falciparum strain. Additional sensitive and resistant strains are included for futher characterization.

[2] = system: chloroquine-sensitive strains of the human-pathogenenic Plasmodium falciparum; assay: Growth inhibition of chloroquine-sensitive Plasmodium falciparum strains in vitro; type: cell-based
Protocol: as §1, §2, §3, §4, §5

Plasmodium berghei = assay: Activity against Plasmodium berghei in vivo in mice; parameters: species or system Plasmodium berghei (strain ANKA) in mice; conditions: for ED50: read-out: ED50 po
Protocol: Test Method for the Determination of the Activity Against Plasmodium berghei in vivo
The preparations are tested on mice infected with malaria pathogens (Plasmodium berghei). Male albino mice (IBM:MORO(SPF), FUELLINSDORF) weighing about 25 g are used as the test animals. They are kept in climatized rooms at 21°-22° C. in groups of 5 animals per cage. They receive ad libitum a diet feed with a low PABA content (NAFAG FUTTER .COPYRGT. No. 9009 PAB-45, PABA content 45 mg/kg) and drinking water. On the first day of the test (DO) the test animals are infected with Plasmodium berghei (strain ANKA). For this there is used heparinized blood of a donor mouse with about 30% parasitemia, which is diluted with physiological saline such that it contains 10^8 parasitized erythrocytes per ml. 0.2 ml of this suspension is injected intravenously (i.v.) into the mice to be treated and into the control mice. In untreated control animals the parasitemia normally reaches 30-40% on the third day after the infection (D+3) and the test animals die between days +5 and +7.
The substances to be tested are dissolved or suspended in distilled water or in a mixture of 7% Tween 80, 3% alcohol (96%) and water. Usually, 0.25 ml of this solution or suspension is administered once subcutaneously and perorally to groups of 5 test animals. Treatment is effected 24 hours after the infection. 10 control animals are treated in the same manner with solvent or suspension medium per test.
All substances are tested in a first test in a single dosage of 10 mg/kg. Only those substances which in this test (10 mg/kg) have shown a parasitaemia reduction of 90% are used for the titration. Suitable dilutions of the test substance can be used to obtain an accurate titration of the activity.
48 hours after the treatment (D+3) blood smears are prepared from all animals using blood from tail veins and are stained with giemsa. The average erythrocyte infection rate (parasitemiea in %) in the control groups as well as in the groups which have been treated with the test compounds is determined by counting under a microscope. The difference in the average values of the infection rates of control group (100%) and treated groups is calculated and expressed as a percentage reduction (GI%). The ED50 or ED90 is determined mathematically by means of the JMP programme (nonlinear fit). The ED50 (ED90) in mg/kg is that dose which after single administration reduces the average erythrocyte infection rate by 50% (90%) in comparison to the control group.

[3] = read-out: IC50 growth inhibition, strain K1, chloroquine-resistant
[4] = NF54, strain NF54, chloroquine-sensitive, read-out: IC50 growth inhibition
[5] = po, percentage parasitemia reduction, single peroral dose 10 mg/kg, mice, read-out: GI % at 10 mg/kg po
[6] = sc, percentage parasitemia reduction, single subcutaneous dose 10 mg/kg, mice, read-out: GI % at 10 mg/kg sc
[7] = read-out: IC50 growth inhibition, strain 7G8, chloroquine-resistant
[8] = read-out: IC50 growth inhibition, strain Indo, chloroquine-resistant
[9] = read-out: IC50 growth inhibition, strain ItG2F6, chloroquine-resistant
[10] = read-out: IC50 growth inhibition, strain RFCF3, chloroquine-resistant
[11] = read-out: IC50 growth inhibition, strain W2, chloroquine-resistant
[12] = read-out: IC50 growth inhibition, strain W2 Mef, chloroquine-resistant
[13] = HB3, strain HB3, chloroquine-sensitive, read-out: IC50 growth inhibition
[14] = strain FCH5C2, chloroquine-sensitive, read-out: IC50 growth inhibition
[15] = strain RFMEF3, chloroquine-sensitive, read-out: IC50 growth inhibition
[16] = strain Ro73, chloroquine-sensitive, read-out: IC50 growth inhibition
[17] = NF54, read-out: IC50 growth inhibition, strain NF54, chloroquine-sensitive
[18] = read-out: IC50 growth inhibition, strain Ro73, chloroquine-sensitive

Compound | IC50 [1, 3] [ng/mL] | IC50 [2, 4] [ng/mL] | inhibition in vivo at 10 mg/kg (Plasmodium berghei; [5]) [%] | inhibition in vivo at 10 mg/kg (Plasmodium berghei; [6]) [%] | IC50 [1, 7] [ng/mL] | IC50 [1, 8] [ng/mL] | IC50 [1, 9] [ng/mL] | IC50 [1, 10] [ng/mL] | IC50 [1, 11] [ng/mL] | IC50 [1, 12] [ng/mL] | Resistance index [1] | IC50 [2, 13] [ng/mL] | IC50 [2, 14] [ng/mL] | IC50 [2, 15] [ng/mL] | IC50 [2, 16] [ng/mL] | IC50 [2, 17] [ng/mL] | IC50 [2, 18] [ng/mL] | other results
Clc1ccc2c(NC/C=C/CNc3ccnc4cc(Cl)ccc34)ccnc2c1 [Example 13, N,N'-Bis-(7-chloroquinolin-4-yl)-2-butene-1,4-diamine] | 18.1 (≈ 0.0442 µM) | 30.8 (≈ 0.0752 µM) | – | – | – | – | – | – | – | – | – | – | – | – | – | – | – | –
Clc1ccc2c(NCC3CCCC(CNc4ccnc5cc(Cl)ccc45)C3)ccnc2c1 (stereo not shown) [Example 11, (7-Chloroquinolin-4-yl)-[3-(7-chloroquinolin-4-yl-aminomethyl)-cyclohexylmethyl]-amine] | 17.8 (≈ 0.0382 µM) | 17.2 (≈ 0.037 µM) | 28 | 99.6 | 20.5 (≈ 0.044 µM) | 14.4 (≈ 0.0309 µM) | 11.6 (≈ 0.0249 µM) | 14.1 (≈ 0.0303 µM) | 9.9 (≈ 0.0213 µM) | 15.9 (≈ 0.0342 µM) | 1.1 | 12.7 (≈ 0.0273 µM) | 14.5 (≈ 0.0312 µM) | 16.8 (≈ 0.0361 µM) | 4.9 (≈ 0.0105 µM) | – | – | –
Clc1ccc2c(N[C@H]3CCC[C@H](Nc4ccnc5cc(Cl)ccc45)C3)ccnc2c1 (relative stereo) [Example 7, ±-trans-N,N'-Bis-(7-chloroquinolin-4-yl)-cyclohexane-1,3-diamine] | 10.5 (≈ 0.024 µM) | 10.7 (≈ 0.0245 µM) | 97 | 99 | – | – | – | – | – | – | – | – | – | – | – | – | – | –
Clc1ccc2c(N[C@H]3CC[C@H](Nc4ccnc5cc(Cl)ccc45)CC3)ccnc2c1 [Example 4, ±-trans-N,N'-Bis-(7-chloroquinolin-4-yl)-cyclohexane-1,4-diamine] | 11.6 (≈ 0.0265 µM) | 7.2 (≈ 0.0165 µM) | 73 | 37 | 2.8 (≈ 0.0064 µM) | 6 (≈ 0.0137 µM) | 5.3 (≈ 0.0121 µM) | 9.5 (≈ 0.0217 µM) | 13.1 (≈ 0.03 µM) | 7 (≈ 0.016 µM) | 2.1 | 3.3 (≈ 0.00755 µM) | 3.6 (≈ 0.00823 µM) | 3.3 (≈ 0.00755 µM) | 1.6 (≈ 0.00366 µM) | – | – | –
Clc1ccc2c(N[C@@H]3CCC[C@H](Nc4ccnc5cc(Cl)ccc45)C3)ccnc2c1 [Example 6, cis-N,N'-Bis-(7-chloroquinolin-4-yl)-cyclohexane-1,3-diamine] | 4.4 (≈ 0.0101 µM) | – | 98 | 99.9 | 3.8 (≈ 0.00869 µM) | 3 (≈ 0.00686 µM) | 4.1 (≈ 0.00937 µM) | 4.2 (≈ 0.0096 µM) | 4 (≈ 0.00915 µM) | 7.6 (≈ 0.0174 µM) | 1.0 | 5.2 (≈ 0.0119 µM) | 6.4 (≈ 0.0146 µM) | 4.8 (≈ 0.011 µM) | – | 3.8 (≈ 0.00869 µM) | 3 (≈ 0.00686 µM) | ED50 (Plasmodium berghei; po, single peroral administration, mice): 1.7 mg/kg
CCN(CC)CCCC(C)Nc1ccnc2cc(Cl)ccc12 (stereo not shown) [Chloroquine, reference compound] | 114 (≈ 0.356 µM) | – | – | – | 81 (≈ 0.253 µM) | 52 (≈ 0.163 µM) | 68 (≈ 0.213 µM) | 130 (≈ 0.406 µM) | – | 79 (≈ 0.247 µM) | 8.7 | – | – | – | – | 7.6 (≈ 0.0238 µM) | 8 (≈ 0.025 µM) | ED50 (Plasmodium berghei; po): 2 mg/kg; inhibition in vivo at 10 mg/kg (Plasmodium berghei; po, read-out: GI % at 10 mg/kg po): 99.9%; inhibition in vivo at 10 mg/kg (Plasmodium berghei; sc, read-out: GI % at 10 mg/kg sc): 99.9%; IC50 ([2]; HB3, read-out: IC50 growth inhibition, strain HB3, chloroquine-sensitive): 11.3 ng/mL (≈ 0.0353 µM); IC50 ([2]; read-out: IC50 growth inhibition, strain FCH5C2, chloroquine-sensitive): 12.2 ng/mL (≈ 0.0381 µM); IC50 ([2]; read-out: IC50 growth inhibition, strain RFMEF3, chloroquine-sensitive): 14.2 ng/mL (≈ 0.0444 µM)
